# Earlier results in patent US5502037A, “Pro-cytotoxic drug conjugates for anticancer therapy” (priority 1993, dated 1996).
# Read-outs that look alike come from different tables or passages of the source.
# Experiments:
# [1] = system: mouse Yoshida ascites sarcoma cells; settings: for In vitro activities: Cytotoxicity: cu = cytostatic units, Yoshida ascites sarcoma cells, Brock, 1976
# [2] = NBP test, relative to NNM; taken from Brock, 1976
# tumor cells = settings: for activity as the result of in vivo metabolism: once activated / metabolized
Structure (SMILES),"In vivo activities: LD50 (Yoshida ascites sarcoma; lethal dose, rat, Brock, 1976) [mg/kg]","D50 Index (LD50/CD50) (Yoshida ascites sarcoma; rat, in vivo)","In vivo activities: CD50 (Yoshida ascites sarcoma; rat, in vivo) [mg/kg]",In vitro activities: Cytotoxicity [1] [CU/μmol],In vitro activities: Alkylating [2] [%],activity as the result of in vivo metabolism (tumor cells),"biologic activity in vitro and in vivo before metabolism (tumor cells; initially, in vitro and in vivo)",activity in vivo against the rat Yoshida ascites sarcoma (in words) (Yoshida ascites sarcoma; comment on Table II),"In vivo activities: CD50 (Yoshida ascites sarcoma; curative dose, Yoshida ascites sarcoma in rat, Brock, 1976) [mg/kg]","In vivo activities: LD50 (Yoshida ascites sarcoma; rat, in vivo) [mg/kg]",activity in the in vitro Yoshida cell cytotoxicity test (in words) ([1]; comment on Table II)
"C=CC=O [Acrolein, acrolein]",7.3,~ 3,> 2.15,0.4,1.9,–,–,–,–,–,–
"O=P1(N(CCCl)CCCl)NCCCO1 (stereo not drawn) [CP, cyclophosphamide]",–,175,–,< 0.03,1.3,highly cancerotoxic,only slight biologic activity,highly active therapeutic agent,1.25,220,virtually inactive
O=P1(NCCCl)OCCCN1CCCl (stereo not drawn) [isophosphamide],–,–,–,–,–,highly cytotoxic in vivo to tumor cells once activated,–,–,–,–,–
